Like-named read-outs stand apart in the source and are kept apart here.
Legend:
[1] = system: male FVB mice, pilocarpine-induced SE; assay: Epilepsy model (pilocarpine-induced status epilepticus mouse model); format: in vivo
Method: Eight- to ten-week-old male FVB mice (22-32 g) received the 1st and 2nd injections of Compound 212320 (at 40 mg/kg in the formulation described above) at 20 and 3 hr prior to induction of seizure with pilocarpine (290 mg/kg, i.p., Sigma). To reduce peripheral cholinergic effects without interfering with the development of SE and chronic seizures, mice received (−) scopolamine methyl nitrate (1.5 mg/kg, Sigma, St. Louis, Mo.) 30 min prior to pilocarpine injection. Control animals were injected with scopolamine followed by saline, instead of pilocarpine. Mice were then observed for 2 hr to record acute seizure severity and latency period. The Racine scale (see Racine, R. J. Modification of seizure activity by electrical stimulation. II. Motor seizure. Electroencephalogr Clin Neurophysiol 32, 281-294 (1972)) was used to rate seizure severity as previously described in Kong, Q., et al. Increased glial glutamate transporter EAAT2 expression reduces epileptogenic processes following pilocarpine-induced status epilepticus. Neurobiol Dis (2012)).
Mice that reached SE and maintained tonic limbic extension for at least 60 min were kept and treated with compound daily for chronic seizure and pathological studies. The SE mice were fed with food soaked in a high sucrose (10%) saline solution to help recovery in the first 3 days after SE. Vehicle-treated SE mice and compound-treated SE littermates were carefully matched based on the body weight, seizure latency, seizure severity, and post-SE sickness.
Chronic seizure activities were recorded by webcam (Logitech, Fremont, Calif.) and reviewed using Windows Live Movie Maker. Daylight periods (9 AM-5 PM) were selected for observations because previous literature indicates a higher frequency of spontaneous recurrent seizures during the day (see Kong, Q., et al. Increased glial glutamate transporter EAAT2 expression reduces epileptogenic processes following pilocarpine-induced status epilepticus. Neurobiol Dis (2012); and Shapiro, L. A., Figueroa-Aragon, S. & Ribak, C. E. Newly generated granule cells show rapid neuroplastic changes in the adult rat dentate gyrus during the first five days following pilocarpine-induced seizures. Eur J Neurosci 26, 583-592 (2007)). At 8 weeks post-SE, brain tissue was harvested from SE mice for cresyl violet staining
Referring to FIG. 3, Compound 212320 reduced mortality rate, spontaneous recurrent seizure and neuronal death following pilocarpine-induced SE. Adult male FVB mice received Compound 212320 (i.p., 40 mg/kg), 3-hr later, were induced seizures with pilocarpine and were then observed for 2 hr to record acute seizure severity and latency period. The Racine scale was used to rate the seizure severity (described above). Mice that reached SE were treated with compound daily and at 4-week post-SE, were recorded chronic seizures for 2 weeks. A total of 15 independent experiments were performed, with a total of 153 vehicle-treated mice and 152 compound 7-4-treated mice. […] FIGS. 3(D-F) show spontaneous recurrent seizure. […] FIGS. 3(G-H) show hippocampal damage.

EAAT2 [2] = assay: EAAT2 protein levels and glutamate uptake in primary dissociated neuron and astrocyte mixed cultures; format: cell-based; details: seven day-old mixed cultures, serum-free media, 48 hr
Method: We next evaluated Compound 212320 in primary dissociated neuron and astrocyte mixed cultures. Seven day-old cultures were treated with Compound 212320 in serum-free media for 48 hr. As shown in FIG. 7A-B, Compound 212320 increased EAAT2 protein levels and glutamate uptake function.

[3] = In vivo pharmacokinetic evaluation in male C57Bl/6 mice (LCMS/MS); parameters: species or system mouse; details: ip, single i.p. 3 mg/kg; for half-life: estimated
Method: Compound 212320 is compliant with Lipinski rules and lacks functionality that would predict overt toxicity or reactivity. This compound has a low molecular weight (293.38), cLogP value (3.28) and polar surface area (PSA) value (37.08 Å2) in the range typical of compounds that can penetrate the blood brain barrier. We conducted in vivo pharmacokinetic evaluation of LDN 212320 in male C57Bl/6 mice. After a single intraperitoneal (i.p.) administration of Compound 212320 (3 mg/kg), the plasma and brain concentrations were determined over an 8 hr period by LCMS/MS (FIG. 8A). […] The plasma and brain half-lives were estimated to be 2.63 and 2.64 hr, respectively. The average brain-to-plasma ratio was approximately 2 at all time points tested.

[4] = system: All other kinases (288 kinases tested); assay: Protein kinase profiling: all other of 288 kinases; format: biochemical; details: 1 and 10 μM
Method: To assess Compound 212320's biological activity and selectivity, we performed an in vitro side effect profiling study. Seventy-one targets were tested at 10 μM in duplicate. These targets include neurotransmitter related receptors (30), steroids (2), ion channels (6), second messenger (1), prostaglandins (3), growth factors/hormones (4), brain/gut peptides (13), enzymes (5) and cytochrome p450 (7). […] Additionally, we performed a protein kinase profiling study. Compound 212320 was tested at 1 and 10 μM against 288 kinases. […] These studies indicate that Compound 212320 has high specificity and low side-effects/toxicity potential.

EAAT2 [5] = assay: [3H]glutamate uptake assay in PA-EAAT2 cells; format: cell-based, human; details: PA-EAAT2 cells (FIG. 6D)
Method: Characterization and efficacy studies of a compound, Compound 212320 (FIG. 6A) is shown. […] In the absence of serum, PA-EAAT2 cells express low amounts of EAAT2 protein, although the recombinant EAAT2 mRNA are expressed (translational silencing); however, EAAT2 protein levels are increased when an activator is added to the culture (translational activation). This cell line was used for high-throughput screening to identify EAAT2 translational activators. To prioritize candidate compounds, we initially evaluated activation of EAAT2 protein in PA-EAAT2 cells. Promising compounds were further evaluated in primary dissociated neuron and astrocyte mixed cultures and then in mice. FIG. 6 presents the characterization of Compound 212320 in PA-EAAT2 cells. Compound 212320 increased EAAT2 protein levels in a dose—(FIG. 6B) and time—(FIG. 6C) dependent manner. Importantly, the induction occurred in a short amount of time (within 1-2 hr) and was sustained even up to 72 hr (data not show). Additionally, induction occurred at low nanomolar concentrations. […] (FIG. 6D).

Cc1ccccc1CSc1ccc(-c2ccccn2)nn1 [Compound 7-4]
Hippocampal damage (hilar neuronal loss, cresyl violet) ([1]; 8 weeks post-SE): significantly attenuated | Chronic seizure frequency (stage V spontaneous recurrent seizures) ([1]; daily treatment, recorded from 4-week post-SE for 2 weeks): significantly reduced | Mortality rate vs vehicle ([1]; day 7 post-SE): significantly decreased | Mortality rate vs vehicle ([1]; day 60 post-SE): significantly decreased | Latency to indicated seizure stage vs vehicle ([1]; i.p., 40 mg/kg): not significantly different | Acute seizure severity (percentage of mice reaching each seizure stage) vs vehicle ([1]; i.p., 40 mg/kg, within 2-hr after pilocarpine): not significantly different | Mortality rate vs vehicle ([1]; on the day that SE was induced): no obvious difference | EAAT2 protein levels (EAAT2 [2]): increased | Glutamate uptake function (EAAT2 [2]): increased | Kp ([3]; male, C57Bl/6, mouse, brain, all time points tested, read-out: average brain-to-plasma ratio): ~2 | half-life ([3]; male, C57Bl/6, mouse, brain, read-out: Brain half-life (converted)): 2.64 h | half-life ([3]; male, C57Bl/6, mouse, plasma, read-out: Plasma half-life (converted)): 2.63 h | Cmax ([3]; mouse, in vivo, male C57Bl/6 mice): 42.1 ± 3.6 ng/mL | Activity on all other kinases tested [4]: insignificant activity | Glutamate uptake function (EAAT2 [5]): correlated to increased EAAT2 protein levels
